Where two headings read alike, the source gives them in different places.
Experiments:
Test in all cases: Kinase panel profiling at 1 µmol/L (MSA or IMAP), percentage inhibition
Type in all cases: biochemical
[1] = biological target: T1, panel of 255 wild-type kinases (Homo sapiens, UniProt Q8TDC3); settings: BRSK1 kinase assay; 1 µmol/L single concentration; read-out: %-inhibition BRSK1
T1 sequence (Q8TDC3 1-778): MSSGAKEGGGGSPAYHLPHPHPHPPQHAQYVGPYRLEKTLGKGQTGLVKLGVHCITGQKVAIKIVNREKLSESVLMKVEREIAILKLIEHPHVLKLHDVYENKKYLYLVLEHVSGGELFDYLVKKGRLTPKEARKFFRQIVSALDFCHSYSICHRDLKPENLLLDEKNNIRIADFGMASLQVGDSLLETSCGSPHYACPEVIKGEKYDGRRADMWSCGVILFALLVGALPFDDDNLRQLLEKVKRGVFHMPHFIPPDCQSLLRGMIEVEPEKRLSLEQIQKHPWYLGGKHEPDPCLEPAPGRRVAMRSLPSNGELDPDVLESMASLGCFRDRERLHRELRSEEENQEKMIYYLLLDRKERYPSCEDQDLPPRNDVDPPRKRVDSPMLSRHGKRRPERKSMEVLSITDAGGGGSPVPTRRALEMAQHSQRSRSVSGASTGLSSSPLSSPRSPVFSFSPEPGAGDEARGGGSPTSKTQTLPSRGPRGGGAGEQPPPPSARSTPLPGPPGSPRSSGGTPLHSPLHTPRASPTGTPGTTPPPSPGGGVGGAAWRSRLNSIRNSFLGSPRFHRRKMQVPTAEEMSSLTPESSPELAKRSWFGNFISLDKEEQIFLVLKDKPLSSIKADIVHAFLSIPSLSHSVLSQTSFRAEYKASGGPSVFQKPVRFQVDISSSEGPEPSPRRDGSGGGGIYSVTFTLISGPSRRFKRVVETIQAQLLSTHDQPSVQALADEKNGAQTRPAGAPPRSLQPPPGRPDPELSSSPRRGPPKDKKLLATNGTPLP

[2] = biological target: panel of 255 wild-type kinases (Homo sapiens, UniProt Q9UQM7); settings: CaMK2α kinase assay; 1 µmol/L single concentration; read-out: %-inhibition CaMK2α
[3] = biological target: panel of 255 wild-type kinases (Homo sapiens, UniProt Q14680); settings: MELK; 1 µmol/L single concentration; read-out: %-inhibition, MELK
[4] = biological target: panel of 255 wild-type kinases (Homo sapiens, UniProt Q15208); settings: NDR1; 1 µmol/L single concentration; read-out: %-inhibition, NDR1
[5] = biological target: panel of 255 wild-type kinases (Homo sapiens, UniProt Q9P289); settings: MST4; 1 µmol/L single concentration; read-out: %-inhibition, MST4
[6] = biological target: panel of 255 wild-type kinases (Homo sapiens, UniProt Q86Z02); settings: kinase HIPK1; 1 µmol/L single concentration; read-out: %-inhibition at 1 µmol/L, HIPK1
[7] = biological target: panel of 255 wild-type kinases (Homo sapiens, UniProt P07332); settings: kinase FES; 1 µmol/L single concentration; read-out: %-inhibition at 1 µmol/L, FES
[8] = biological target: panel of 255 wild-type kinases (Homo sapiens, UniProt P08581); settings: MET; 1 µmol/L single concentration
[9] = biological target: T2, panel of 255 wild-type kinases (Homo sapiens, UniProt O43781); settings: kinase DYRK3; 1 µmol/L single concentration; read-out: %-inhibition at 1 µmol/L, DYRK3
T2 sequence (O43781 1-588): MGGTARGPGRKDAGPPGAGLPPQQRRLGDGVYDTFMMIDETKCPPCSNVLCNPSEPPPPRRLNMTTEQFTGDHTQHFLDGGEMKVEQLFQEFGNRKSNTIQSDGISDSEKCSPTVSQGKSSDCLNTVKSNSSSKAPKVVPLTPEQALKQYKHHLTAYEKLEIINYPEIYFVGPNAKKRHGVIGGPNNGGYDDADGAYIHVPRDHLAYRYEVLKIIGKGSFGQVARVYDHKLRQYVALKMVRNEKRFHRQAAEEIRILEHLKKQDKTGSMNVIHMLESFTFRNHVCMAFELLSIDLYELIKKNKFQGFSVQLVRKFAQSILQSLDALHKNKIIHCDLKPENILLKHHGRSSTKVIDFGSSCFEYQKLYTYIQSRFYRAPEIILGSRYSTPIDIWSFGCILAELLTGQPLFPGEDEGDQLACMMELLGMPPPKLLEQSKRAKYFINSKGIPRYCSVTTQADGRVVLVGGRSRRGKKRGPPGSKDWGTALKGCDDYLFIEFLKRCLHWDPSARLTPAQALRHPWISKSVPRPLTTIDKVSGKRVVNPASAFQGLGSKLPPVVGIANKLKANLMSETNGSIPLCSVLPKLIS

[10] = biological target: panel of 255 wild-type kinases (Homo sapiens, UniProt P17252); settings: kinase PKCα; 1 µmol/L single concentration; read-out: %-inhibition at 1 µmol/L, PKCα
[11] = biological target: panel of 255 wild-type kinases (Homo sapiens, UniProt P49137); settings: kinase MAPKAPK2; 1 µmol/L single concentration; read-out: %-inhibition at 1 µmol/L, MAPKAPK2
[12] = biological target: panel of 255 wild-type kinases (Homo sapiens, UniProt Q9P0L2); settings: MARK1; 1 µmol/L single concentration; read-out: %-inhibition, MARK1
[13] = biological target: panel of 255 wild-type kinases (Homo sapiens, UniProt P08922); settings: read-out: %-inhibition at 1 µmol/L, ROS
[14] = biological target: panel of 255 wild-type kinases (Homo sapiens, UniProt Q8N4C8); settings: MINK; 1 µmol/L single concentration; read-out: %-inhibition, MINK
[15] = biological target: panel of 255 wild-type kinases (Homo sapiens, UniProt P06213); settings: kinase INSR; 1 µmol/L single concentration; read-out: %-inhibition at 1 µmol/L, INSR
[16] = biological target: panel of 255 wild-type kinases (Homo sapiens, UniProt O00311); settings: CDC7/ASK kinase assay; 1 µmol/L single concentration; read-out: %-inhibition CDC7/ASK
[17] = kinase ROS, 1 µmol/L single concentration

Compound | inhibition at 1 µM [1] | inhibition at 1 µM [2] | inhibition at 1 µM [3] | inhibition at 1 µM [4] | inhibition at 1 µM [5] | inhibition at 1 µM [6] | inhibition at 1 µM [7] | inhibition at 1 µM [8] | inhibition at 1 µM [9] | inhibition at 1 µM [10] | inhibition at 1 µM [11] | inhibition at 1 µM [12] | inhibition at 1 µM [13, 17] | inhibition at 1 µM [14] | inhibition at 1 µM [15] | inhibition at 1 µM [16] | inhibition at 1 µM [13]
C[C@H](Nc1ncnc2nc[nH]c12)c1cc2cccc(Cl)c2c(=O)n1-c1ccccc1 [duvelisib] | 0.274% | 0.0129% | 2.43% | 0.434% | -3.25% | 0.739% | -0.806% | 1.63% | -2% | 0.321% | -16% | 4.47% | -3.53% | 0.317% | -0.398% | 0.486% | 
COC(=O)N[C@@H](C)CNc1nccc(-c2cn(C(C)C)nc2-c2cc(Cl)cc(NS(C)(=O)=O)c2F)n1 [encorafenib] | 1.38% | -2.55% | 4.48% | 1.12% | -4.45% | 5.6% | 7% | 2.82% | -1.06% | 5% | -11% | 2.71% | 14% | 1.29% | 9% | -4.28% | 
CCN1CCN(c2ccc(Nc3cc(N(C)C(=O)Nc4c(Cl)c(OC)cc(OC)c4Cl)ncn3)cc2)CC1 [infigratinib] | 1.2% | -1.22% | -2% | 1.4% | -10% | -4.25% | 20% | 0.848% | -10% | -4% | -32% | -9% | 29% | -2.82% | 17% | -2% | 
O=C(Nc1cnn2ccc(N3CCC[C@@H]3c3cc(F)ccc3F)nc12)N1CC[C@H](O)C1 [larotrectinib] | -0.915% | 2.74% | -1.52% | -2.75% | 1.67% | -3.73% | -1.07% | -4% | -6% | -3% | -13% | -6.38% |  | -2.24% | 2% | -3.24% | 86%
CCN1C(=O)N(c2c(F)c(OC)cc(OC)c2F)Cc2cnc3[nH]c(CN4CCOCC4)cc3c21 [pemigatinib] | 0.395% | 5% | 0.738% | -4.31% | 56% | 1.47% | 1.55% | -2.49% | -2.68% | -1.62% | -0.432% | 57% | 3.74% | -4.31% | 9% | -3.54% | 
CO[C@]1(C(=O)N[C@@H](C)c2ccc(-n3cc(F)cn3)nc2)CC[C@H](c2nc(C)cc(Nc3cc(C)[nH]n3)n2)CC1 [pralsetinib] | 12% | -1.59% | 3.6% | 7.54% | -1.47% | 13% | 8% | 5.27% | -4.32% | 3% | -31% | -13% | 94% | -3.43% | 10% | -1.05% | 
CCn1c(=O)c(-c2cc(NC(=O)Nc3ccccc3)c(F)cc2Br)cc2cnc(NC)cc21 [ripretinib] | 1.77% | -5.68% | 30% | 0.881% | -0.174% | -5.27% | 23% | 8% | -3.77% | -1.85% | -24% | -0.571% | 3.79% | 3.55% | 1.55% | 0.278% | 
COc1ccc(CN2C3CC2CN(c2ccc(-c4cc(OCC(C)(C)O)cn5ncc(C#N)c45)cn2)C3)cn1 [selpercatinib] | 36% | 1.43% | 62% | -1.18% | 2.38% | -0.334% | 15% | 23% | 19% | 3.23% | -5.47% | 22% | 64% | -5.33% | 1.51% | -2% | 
Cn1cnc2c(F)c(Nc3ccc(Br)cc3Cl)c(C(=O)NOCCO)cc21 [selumetinib] | -1.75% | -1.34% | -2.6% | 0.227% | -0.349% | 0.0183% | -3.3% | -0.807% | -4.7% | 0.203% | -5% | -16% | 15% | -4.5% | 3% | -0.0396% | 

Reference: publication PMC9516332 (Frontiers in Oncology, 2022)
